US7585895B2, “Therapeutic substituted cyclopentanes” (Allergan, Inc., priority 2005, dated 2009)

Tests used:
[1] = molecular target: T1, hEP4/Gqs5 (Homo sapiens, UniProt P35408); assay: FLIPR calcium signal, EP4; type: cell-based; conditions: HEK-293(EBNA); for EC50: read-out: Ca2+ Signal-EC50 (nM) EP4
T1 construct: expressed in transfected cells
Outline: (§1)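 Stable HEK-293(EBNA) lines expressing recombinant human EP1, TP, or EP2/EP4 coupled via Gqs5; Fluo-4 AM loaded (2 μM, 45 min), HBSS-HEPES pH 7.4, 37° C. Peak FLIPR fluorescence expressed relative to buffer and standard agonist (PGE2 for EP receptors, U-46619 for TP); compounds at 10^−5 M or 10^−5–10^−11 M, duplicates, n≧3.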

[2] = molecular target: T2, hEP2/Gqs5 (Homo sapiens, UniProt P43116); assay: FLIPR calcium signal, EP2; type: cell-based; conditions: HEK-293(EBNA), value outside parentheses, read-out: Ca2+ Signal-EC50 (nM) EP2
T2 construct: expressed in transfected cells
T2 sequence (P43116 whole entry): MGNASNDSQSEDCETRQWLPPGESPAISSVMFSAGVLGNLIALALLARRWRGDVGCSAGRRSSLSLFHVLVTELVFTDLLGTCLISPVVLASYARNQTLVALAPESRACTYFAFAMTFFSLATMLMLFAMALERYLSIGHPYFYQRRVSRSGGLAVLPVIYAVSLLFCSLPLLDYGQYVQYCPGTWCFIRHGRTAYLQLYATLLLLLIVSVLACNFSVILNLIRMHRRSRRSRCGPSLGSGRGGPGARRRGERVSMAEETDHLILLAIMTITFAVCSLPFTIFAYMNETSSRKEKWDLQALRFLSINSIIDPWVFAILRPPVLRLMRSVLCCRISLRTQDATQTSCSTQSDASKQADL
Outline: as §1

[3] = molecular target: T3, hEP3A/Gqi5 (Homo sapiens, UniProt P43115); assay: FLIPR calcium signal, EP3; type: cell-based; conditions: HEK-293(EBNA); for EC50: read-out: Ca2+ Signal-EC50 (nM) EP3
T3 construct: expressed in transfected cells
T3 sequence (P43115 1-390): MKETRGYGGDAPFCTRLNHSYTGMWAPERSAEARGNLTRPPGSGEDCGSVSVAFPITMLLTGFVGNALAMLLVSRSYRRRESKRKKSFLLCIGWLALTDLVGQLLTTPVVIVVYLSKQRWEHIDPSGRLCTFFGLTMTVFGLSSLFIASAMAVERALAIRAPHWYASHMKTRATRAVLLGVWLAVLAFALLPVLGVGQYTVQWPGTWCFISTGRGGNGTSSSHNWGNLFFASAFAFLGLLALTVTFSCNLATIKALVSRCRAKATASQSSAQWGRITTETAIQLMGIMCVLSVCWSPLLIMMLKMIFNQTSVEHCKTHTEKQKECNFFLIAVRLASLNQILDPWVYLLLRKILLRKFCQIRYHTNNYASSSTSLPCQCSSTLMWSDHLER
Outline: (§2)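 Stably transfected HEK-293(EBNA) cells loaded with 2 μM Fluo-4 AM in HBSS-HEPES pH 7.4, 37° C; peak fluorescence rise after compound addition (FLIPR, 488 nm excitation) expressed relative to buffer and standard agonist controls (PGE2 for EP subtypes, U-46619 for TP). Tested 10^−5 to 10^−11 M, duplicates, n≧3.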

[4] = molecular target: T4, EP4 receptors (Homo sapiens, UniProt P35408); assay: Radioligand binding, [3H]PGE2, EP4 (Ki); conditions: HEK-293 cells stably expressing EP4, [3H]PGE2
T4 construct: expressed in transfected cells; membrane pellet
T4 sequence (P35408 whole entry): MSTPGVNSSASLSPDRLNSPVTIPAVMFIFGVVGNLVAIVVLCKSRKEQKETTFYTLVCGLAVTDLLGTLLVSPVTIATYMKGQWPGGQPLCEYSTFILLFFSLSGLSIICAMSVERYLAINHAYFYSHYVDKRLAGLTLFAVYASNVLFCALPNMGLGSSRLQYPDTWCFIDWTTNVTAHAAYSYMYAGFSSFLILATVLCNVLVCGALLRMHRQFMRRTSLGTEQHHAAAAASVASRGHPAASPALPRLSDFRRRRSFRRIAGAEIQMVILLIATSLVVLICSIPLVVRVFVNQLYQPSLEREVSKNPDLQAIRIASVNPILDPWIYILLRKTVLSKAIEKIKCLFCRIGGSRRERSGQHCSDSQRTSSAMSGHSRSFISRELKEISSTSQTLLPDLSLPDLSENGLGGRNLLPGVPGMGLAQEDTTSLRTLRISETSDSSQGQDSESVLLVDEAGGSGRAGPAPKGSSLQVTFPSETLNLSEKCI
Outline: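 Membranes from HEK-293 cells stably expressing human EP4 were incubated 60 min at 25 °C with 5 nM [3H]PGE2 and competitor in TME buffer pH 7.4, then filtered over GF/B. Non-specific binding defined with 10^−5 M unlabeled PGE2; duplicate points, at least three experiments.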

[5] = molecular target: T5, hDP/Gqs5 (Homo sapiens, UniProt Q13258); assay: FLIPR calcium signal, DP; type: cell-based; conditions: HEK-293(EBNA)
T5 construct: expressed in transfected cells
T5 sequence (Q13258 1-359): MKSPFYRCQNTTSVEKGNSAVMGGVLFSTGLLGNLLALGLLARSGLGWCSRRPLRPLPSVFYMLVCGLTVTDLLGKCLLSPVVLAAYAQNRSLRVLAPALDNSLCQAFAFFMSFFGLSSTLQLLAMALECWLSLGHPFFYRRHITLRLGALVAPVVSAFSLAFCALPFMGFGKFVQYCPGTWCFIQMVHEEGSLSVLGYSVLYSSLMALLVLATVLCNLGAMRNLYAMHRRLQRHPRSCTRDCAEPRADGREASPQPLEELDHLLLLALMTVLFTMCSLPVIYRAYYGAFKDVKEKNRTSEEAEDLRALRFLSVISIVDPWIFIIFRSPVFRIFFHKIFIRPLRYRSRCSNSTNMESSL
Outline: as §2

T1 sequence (P35408 whole entry): as the sequence (P35408 whole entry) above

O=C(O)CCC/C=C\C[C@@H]1[C@@H](c2ccc(C(O)CCc3ccccc3)cc2)[C@H](O)C[C@H]1Cl (stereo partly drawn) [Entry 23, (Z)-7-{(1R,2S,3R,5R)-5-Chloro-3-hydroxy-2-[4-(1-hydroxy-3-phenyl-propyl)-phenyl]-cyclopentyl}-hept-5-enoic acid] showed an EC50 [1] of over 10000 nM, an EC50 [2] of 548 nM and an EC50 [3] of 13700 nM. The Ki [4] was over 10000 nM and the “Ca2+ Signal-EC50 (nM) DP” value [5] was “not active”.

For CCCCCC(O)c1ccc([C@@H]2[C@@H](C/C=C\CCCC(=O)O)[C@H](Cl)C[C@H]2O)cc1 (single isomer, unassigned) [Entry 12], the EC50 [1] was over 10000 nM, the EC50 [2] was 36 nM and the “Ca2+ Signal-EC50 (nM) EP3” value [3] was “not active”. For the same compound, the Ki [4] was over 10000 nM and the “Ca2+ Signal-EC50 (nM) DP” value [5] was “not active”.

In the case of CCCC1(C(O)c2cccc([C@@H]3[C@@H](Cc4cccc(CCC(=O)O)c4)[C@H](Cl)C[C@H]3O)c2)CCC1 (stereo partly drawn) [Entry 4, 3-[3-((1R,2S,3R,5R)-5-Chloro-3-hydroxy-2-{3-[hydroxy-(1-propyl-cyclobutyl)-methyl]-phenyl}-cyclopentylmethyl)-phenyl]-propionic acid], the EC50 [1] is reported as over 10000 nM, the EC50 [2] is reported as 4110 nM and the “Ca2+ Signal-EC50 (nM) EP3” value [3] is reported as “not active”. For the same compound, the Ki [4] was over 10000 nM and the “Ca2+ Signal-EC50 (nM) DP” value [5] was “not active”.

In the case of CCCCC(O)C(C)(C)c1ccc([C@@H]2[C@@H](C/C=C\CCCC(=O)O)[C@H](Cl)C[C@H]2O)cc1 (mixture of isomers) [Entry 32, (Z)-7-{(1R,2S,3R,5R)-5-Chloro-3-hydroxy-2-[4-(2-hydroxy-1,1-dimethyl-hexyl)-phenyl]-cyclopentyl}-hept-5-enoic acid], the “Ca2+ Signal-EC50 (nM) EP4” value [1] is reported as “not active”, the EC50 [2] is reported as 164 nM and the EC50 [3] is reported as 2810 nM. The Ki [4] was 9640 nM and the “Ca2+ Signal-EC50 (nM) DP” value [5] was “not active”.

With O=C(O)CCCCCC[C@@H]1[C@@H](c2ccc(C(O)CCC3CCCCC3)cc2)[C@H](O)C[C@H]1Cl (stereo partly drawn) [Entry 16, 7-{(1R,2S,3R,5R)-5-Chloro-2-[4-(3-cyclohexyl-1-hydroxy-propyl)-phenyl]-3-hydroxy-cyclopentyl}-heptanoic acid] the “Ca2+ Signal-EC50 (nM) EP4” value [1] was “not active”, the EC50 [2] was 2330 nM and the EC50 [3] was 1710 nM. The Ki [4] was 5580 nM and the “Ca2+ Signal-EC50 (nM) DP” value [5] was “not active”.

For CCCCCC(O)c1ccc([C@@H]2[C@@H](C/C=C\CCCC(=O)O)[C@H](Cl)C[C@H]2O)cc1 (mixture of isomers) [Entry 11, (Z)-7-{(1R,2S,3R,5R)-5-Chloro-3-hydroxy-2-[4-(1-hydroxy-hexyl)-phenyl]-cyclopentyl}-hept-5-enoic acid], the EC50 [1] was over 10000 nM, the EC50 [2] was 7 nM and the EC50 [3] was 456 nM. The Ki [4] was over 10000 nM and the “Ca2+ Signal-EC50 (nM) DP” value [5] was “not active”.

For CCCCCC(O)C(C)(C)c1ccc([C@@H]2[C@@H](C/C=C\CCCC(=O)O)[C@H](Cl)C[C@H]2O)cc1 (stereo partly drawn) [Entry 31, (Z)-7-{(1R,2S,3R,5R)-5-Chloro-3-hydroxy-2-[4-(2-hydroxy-1,1-dimethyl-heptyl)-phenyl]-cyclopentyl}-hept-5-enoic acid], the “Ca2+ Signal-EC50 (nM) EP4” value [1] was “not active”, the EC50 [2] was 544 nM and the EC50 [3] was 1300 nM. For the same compound, the Ki [4] was 5410 nM and the “Ca2+ Signal-EC50 (nM) DP” value [5] was “not active”.
